Assay results from patent publication US20130029981A1, “COMPOUNDS, COMPOSITIONS, AND METHODS FOR CONTROLLING BIOFILMS” (Katholieke Universiteit Leuven, priority 2009, published 2013).

Each compound was assayed on S. Typhimurium ATCC14028 (assay: Static peg assay for prevention of biofilm formation (Calgary device, crystal violet)). Conditions: 25° C., Table 16; read-out: S. Typhimurium IC50 (biofilm formation).
Format: cell-based, Salmonella Typhimurium
Description: (§1) Evaluation of the biofilm inhibitory activity of some substituted 2-amino-1H-imidazoles of the invention was carried out by growing up biofilms of S. Typhimurium ATCC14028 or SL1344 or Pseudomonas aeruginosa PA14 in the presence of different concentrations (1/2 dilution series) of biofilm inhibitors, by using the Calgary biofilm device. After an incubation period of 24 hours at 25° C. or 37° C. or 48 hours at 16° C. the biofilms were visualized by crystal violet staining. In the next step the stain was extracted from the biofilm with 30% acetic acid. The absorbance of the resolubilized stain at 570 nm is a measure of the amount of biofilm formed.
In examples 2 and 3, the following materials and methods were used.
The device used for biofilm formation is a platform carrying 96 polystyrene pegs (Nunc no. 445497) that fits as a microtiter plate lid with a peg hanging into each microtiter plate well (Nunc no. 269789). Biofilm formation assays were carried out at 16° C., 25° C. and 37° C.
For biofilm assays at 16° C. and 25° C., two-fold serial dilutions of the compounds in 100 μl liquid TSB 1/20 broth per well were prepared in the microtiter plate. Subsequently, an overnight culture of S. Typhimurium ATCC14028 or SL1344 (grown up in LB medium) was diluted 1:100 into TSB 1/20 broth and 100 μl (ca. 10^6 cells) was added to each well of the microtiter plates, resulting in a total amount of 200 μl medium per well. The pegged lid was placed on the microtiter plate and the plate was incubated for 48 hours at 16° C. or for 24 hours at 25° C. without shaking. During this incubation period biofilms were formed on the surface of the pegs. In case of the assay at 16° C., after 24 hours the lid was transferred into a new plate with medium and the specific molecules used for testing. […] For quantification of biofilm formation, the pegs were washed once in 200 μl phosphate buffered saline (PBS). The remaining attached bacteria were stained for 30 minutes with 200 μl 0.1% (w/v) crystal violet in an isopropanol/methanol/PBS solution (v/v 1:1:18). Excess stain was rinsed off by placing the pegs in a 96-well plate filled with 200 μl distilled water per well. After the pegs were air dried (30 min), the dye bound to the adherent cells was extracted with 30% glacial acetic acid (200 μl). The OD570 of each well was measured using the VERSAmax microtiter plate reader. The IC50 value for each compound was determined from concentration gradients in two or three independent experiments (with 2 or 3 repeats per experiment), by using the GraphPad software of Prism.
For biofilm assays at 37° C., two-fold serial dilutions of the compounds in 50 μl liquid CFA broth per well were prepared in the microtiter plate. Subsequently, an overnight culture of S. Typhimurium ATCC 14028 was diluted 1:100 into CFA broth and 100 μl (ca. 10^6 cells) was added to each well of the microtiter plates, resulting in a total amount of 150 μl medium per well. The pegged lid was placed on the microtiter plate and the plate was incubated for 24 hours at 37° C. without shaking. During incubation the plates were placed in a humidity controlled container to prevent evaporation of the growth medium. Quantification of biofilm formation was performed similarly as described above for the assays at 16° C. and 25° C.
as §1, with “imidazo[1,2-a]pyrimidinium bromide salts” for “2-amino-1H-imidazoles”

| Compound | IC50 [µM] |
| --- | --- |
| CN1c2nccc[n+]2CC1(O)c1ccccc1 (racemic) [Compound 1] | > 800 |

Same assay, conditions: 25° C.; strain not given; read-out: IC(50), preventive activity against S. typhimurium biofilms

| Compound | IC50 [µM] |
| --- | --- |
| Clc1ccc(-c2cnc(NCCn3cc(C4CCCCC4)nn3)[nH]2)cc1Cl [R3=3,4-diClPh; R4=H; R9=c-hexyl; n=2] | 55.2 |
| Clc1ccc(-c2cnc(NCCCn3cc(C4CCCCC4)nn3)[nH]2)cc1Cl [R3=3,4-diClPh; R4=H; R9=c-hexyl; n=3] | 26.8 |
| CC(C)(C)c1ccc(-c2cn(CCCNc3ncc(-c4ccc(Cl)c(Cl)c4)[nH]3)nn2)cc1 [R3=3,4-diClPh; R4=H; R9=p(t-Bu)Ph; n=3] | 17.8 |
| COc1ccc(-c2cn(CCNc3ncc(-c4ccc(Cl)c(Cl)c4)[nH]3)nn2)cc1 [R3=3,4-diClPh; R4=H; R9=p-MeOPh; n=2] | > 800 |
| CCCc1cn(CCNc2ncc(-c3ccc(Cl)c(Cl)c3)[nH]2)nn1 [R3=3,4-diClPh; R4=H; R9=propyl; n=2] | 35.6 |
| CCCc1cn(CCCNc2ncc(-c3ccc(Cl)c(Cl)c3)[nH]2)nn1 [R3=3,4-diClPh; R4=H; R9=propyl; n=3] | 31.8 |
| Clc1ccc(-c2cnc(NCCCn3cc(-c4ccsc4)nn3)[nH]2)cc1Cl [R3=3,4-diClPh; R4=H; R9=thiofuran; n=3] | 2 |
| CC(C)(N)c1cn(CCCNc2ncc(-c3ccc(Br)cc3)[nH]2)nn1 [R3=4-BrPh; R4=H; R9=C(CH3)2(NH2); n=3] | 30.9 |
| Brc1ccc(-c2cnc(NCCn3cc(C4CCCCC4)nn3)[nH]2)cc1 [R3=4-BrPh; R4=H; R9=c-hexyl; n=2] | 8.4 |
| Brc1ccc(-c2cnc(NCCn3cc(C4CC4)nn3)[nH]2)cc1 [R3=4-BrPh; R4=H; R9=c-propyl; n=2] | 2.02 |
| CCCCCCCc1cn(CCNc2ncc(-c3ccc(Br)cc3)[nH]2)nn1 [R3=4-BrPh; R4=H; R9=heptyl; n=2] | 189 |
| Cc1ccc(-c2cn(CCNc3ncc(-c4ccc(Br)cc4)[nH]3)nn2)cc1 [R3=4-BrPh; R4=H; R9=p-MePh; n=2] | > 800 |
| CCCCCc1ccc(-c2cn(CCCNc3ncc(-c4ccc(Br)cc4)[nH]3)nn2)cc1 [R3=4-BrPh; R4=H; R9=p-PenPh; n=3] | > 800 |
| COc1ccc(-c2cn(CCNc3ncc(-c4ccc(Br)cc4)[nH]3)nn2)cc1 [R3=4-BrPh; R4=H; R9=pMeOPh; n=2] | 91.2 |
| CCCc1cn(CCNc2ncc(-c3ccc(Br)cc3)[nH]2)nn1 [R3=4-BrPh; R4=H; R9=propyl; n=2] | 25.3 |
| CCCc1cn(CCCNc2ncc(-c3ccc(Br)cc3)[nH]2)nn1 [R3=4-BrPh; R4=H; R9=propyl; n=3] | 35.3 |
| Fc1ccc(-c2cnc(NCCn3cc(C4CCCC4)nn3)[nH]2)cc1 [R3=4-FPh; R4=H; R9=c-pentyl; n=2] | 128 |
| Fc1ccc(-c2cnc(NCCn3cc(C4CC4)nn3)[nH]2)cc1 [R3=4-FPh; R4=H; R9=c-propyl; n=2] | 93.3 |
| CC(C)(C)c1cn(CCNc2ncc(C(c3ccccc3)c3ccccc3)[nH]2)nn1 [R3=CHPh2; R4=H; R9=t-Butyl; n=2] | 30.9 |
| c1ccc(-c2cn(CCNc3ncc(-c4ccccc4)[nH]3)nn2)cc1 [R3=Ph; R4=H; R9=Phenyl; n=2] | 36.5 |
| c1ccc(-c2cn(CCCNc3ncc(-c4ccccc4)[nH]3)nn2)cc1 [R3=Ph; R4=H; R9=phenyl; n=3] | 40 |
| CCCCCc1cn(CCNc2nc(-c3ccc(C)cc3)c(-c3ccc(Cl)cc3)[nH]2)nn1 [R3=p-ClPh; R4=p-MePh; R9=Pentyl; n=2] | 371 |
| Cc1ccc(-c2nc(NCCn3cc(C4CCCC4)nn3)[nH]c2-c2ccc(Cl)cc2)cc1 [R3=p-ClPh; R4=p-MePh; R9=c-Pentyl; n=2] | 6.5 |

Same assay, conditions: S. Typhimurium ATCC 14028, 25° C.; read-out: IC50 for biofilm inhibition (25° C.)

| Compound | IC50 [µM] |
| --- | --- |
| CCCCNc1nc(-c2ccccc2)c[nH]1 [R1=H, R2=Butyl, R3=H, R4=Ph] | 25 |
| CCCCNc1nc(-c2ccc(Br)cc2)c[nH]1 [R1=H, R2=Butyl, R3=H, R4=p-Br—Ph] | 7 |
| CCCCNc1nc(-c2ccc(OC)cc2)c[nH]1 [R1=H, R2=Butyl, R3=H, R4=p-MeO—Ph] | 49 |
| O=[N+]([O-])c1ccc(-c2c[nH]c(NC3CCCCC3)n2)cc1 [R1=H, R2=Cyclohexyl, R3=H, R4=p-NO2—Ph] | 44 |
| CNc1nc(-c2ccc(F)cc2)c[nH]1 [R1=H, R2=Methyl, R3=H, R4=p-F—Ph] | 102 |
| c1ccc(-c2ccc(-c3c[nH]c(NC4CCCC4)n3)cc2)cc1 [R1=H, R2=cyclopentyl, R3=H, R4=Bi—Ph] | 46 |
| c1ccc(-c2c[nH]c(NC3CCCC3)n2)cc1 [R1=H, R2=cyclopentyl, R3=H, R4=Ph] | 53 |
| O=[N+]([O-])c1ccc(-c2c[nH]c(NC3CCCC3)n2)cc1 [R1=H, R2=cyclopentyl, R3=H, R4=p-NO2—Ph] | 12 |
| Cc1ccc(-c2c[nH]c(NC(C)C)n2)cc1 [R1=H, R2=i-Propyl, R3=H, R4=p-Me—Ph] | 99 |

Same assay, conditions: S. Typhimurium ATCC 14028, 25° C.; read-out: S. Typhimurium IC50 (biofilm formation)

| Compound | IC50 [µM] |
| --- | --- |
| CNc1ncc(-c2ccc(O)cc2)[nH]1 [Compound 113] | 160 |

Same assay, conditions: Salmonella enterica; 25° C., Table 11; read-out: IC50 (biofilm formation)

| Compound | IC50 [µM] |
| --- | --- |
| CCCCCCN1c2nccc[n+]2C(C)C1(O)c1ccccc1 (stereo not shown) [R1=Hexyl, R3=Ph, R4=Me, 1-hexyl-2-hydroxy-2-phenyl-3-methyl-2,3-dihydro-1H-imidazo[1,2-a]pyrimidin-4-ium bromide] | 218 |
| Cc1ccc(C2(O)C[n+]3cccnc3N2C(C)C)cc1 (stereo not shown) [R1=Isopropyl, R3=4-Me—Ph, R4=H, 1-isopropyl-2-hydroxy-2-(4-methylphenyl)-2,3-dihydro-1H-imidazo[1,2-a]pyrimidin-4-ium bromide] | 217 |
| N#Cc1ccc(C2(O)C[n+]3cccnc3N2C2CCCCC2)cc1 (stereo not shown) [R1=cyclohexyl, R3=4-CN—Ph, R4=H, 1-cyclohexyl-2-hydroxy-2-(4-cyanophenyl)-2,3-dihydro-1H-imidazo[1,2-a]pyrimidin-4-ium bromide] | 354 |
| COc1ccc(CN2c3nccc[n+]3CC2(O)c2ccc([N+](=O)[O-])cc2)cc1 (stereo not shown) [R1=p-MeOBn, R3=4-NO2-Ph, R4=H, 1-(4-methoxybenzyl)-2-hydroxy-2-(4-nitrophenyl)-2,3-dihydro-1H-imidazo[1,2-a]pyrimidin-4-ium bromide] | 220 |

Same assay, conditions: Salmonella enterica; 25° C., Table 14; read-out: IC50 biofilm inhibition

| Compound | IC50 [µM] |
| --- | --- |
| CCCCCCN1c2nccc[n+]2C(C)C1(O)c1ccccc1 (stereo not shown) [R1=Hexyl, R3=Ph, R4=Me, 1-hexyl-2-hydroxy-2-phenyl-3-methyl-2,3-dihydro-1H-imidazo[1,2-a]pyrimidin-4-ium bromide] | 218 |
| Cc1ccc(C2(O)C[n+]3cccnc3N2C(C)C)cc1 (stereo not shown) [R1=Isopropyl, R3=4-Me—Ph, R4=H, 1-isopropyl-2-hydroxy-2-(4-methylphenyl)-2,3-dihydro-1H-imidazo[1,2-a]pyrimidin-4-ium bromide] | 217 |
| N#Cc1ccc(C2(O)C[n+]3cccnc3N2C2CCCCC2)cc1 (stereo not shown) [R1=cyclohexyl, R3=4-CN—Ph, R4=H, 1-cyclohexyl-2-hydroxy-2-(4-cyanophenyl)-2,3-dihydro-1H-imidazo[1,2-a]pyrimidin-4-ium bromide] | 354 |
| COc1ccc(CN2c3nccc[n+]3CC2(O)c2ccc([N+](=O)[O-])cc2)cc1 (stereo not shown) [R1=p-MeOBn, R3=4-NO2-Ph, R4=H, 1-(4-methoxybenzyl)-2-hydroxy-2-(4-nitrophenyl)-2,3-dihydro-1H-imidazo[1,2-a]pyrimidin-4-ium bromide] | 220 |

Each compound was assayed on Pseudomonas aeruginosa PA14 in the same assay as above. Conditions: 25° C., Table 16; read-out: P. aeruginosa IC50 (biofilm formation).
Format: cell-based
Description: as §1
The device used for Pseudomonas aeruginosa biofilm formation is the same platform carrying polystyrene pegs as described above for Salmonella Typhimurium.
Two-fold serial dilutions of the compounds in 100 μl liquid broth per well were prepared in the microtiter plate. Subsequently, an overnight culture of P. aeruginosa PA14 (grown up in TSB medium) was diluted 1:100 into liquid broth and 100 μl was added to each well of the microtiter plates, resulting in a total amount of 200 μl medium per well. The pegged lid was placed on the microtiter plate and the plate was incubated for 24 hours at 25° C., 30° C. or 37° C. without shaking. During this incubation period biofilms were formed on the surface of the pegs. The liquid broth used for the tests at 25° C. was TSB 1/20. The tests at 37° C. were performed in CFA and/or LBNS broth. During incubation at 30° C. and 37° C. the plates were placed in a humidity controlled container to prevent evaporation of the growth medium. Quantification of biofilm formation was performed similarly as described previously for the S. Typhimurium biofilm assays.
as §1, with “imidazo[1,2-a]pyrimidinium bromide salts” for “2-amino-1H-imidazoles”
as §1, with “substituted imidazo[1,2-a]-pyrimidinium bromide and perchlorate salts produced according to examples 3 and 5” for “substituted 2-amino-1H-imidazoles of the invention”, “C.” for “C. or 37° C. or 48 hours at 16° C.”, “nm was taken as” for “nm is”

| Compound | IC50 [µM] |
| --- | --- |
| CN1c2nccc[n+]2CC1(O)c1ccccc1 (racemic) [Compound 1] | 212 |
